Source: EP0133795B1 (THE McLEAN HOSPITAL CORPORATION, priority 1983, dated 1985)
Structures can show the parent of a compound that is named as a salt.

Experiments:
[1] = system: self-stimulation reward; test: Self-stimulation reward test; type: in vivo, rats; conditions: for Max. DSSR: DSSR 0.3 designated as 100%
Source text: The procedure measured the capacity of a given pharmacological agent to inhibit rats from receiving stimulating currents provided by electrodes implanted in their brains (lateral hypothalamus), Stellar et al, Pharmacol. Biochem. & Behav., 18,433-442 (1983). The animals will press a lever to receive a current from the implanted electrode in preference to all else. The rate at which they press the lever depends on the intensity of the current (reward) that is being produced by the electrode. The intensity of the current is varied by raising the frequency at which […] pulses (0.1 msec duration) are delivered during a 0.5 sec time span in response to a lever press. A plot of the log of the frequency of the delivered pulses vs. the rate of lever presses for an animal gives a self-stimulation reward curve. Injection of a drug which has a tranquilizing effect shifts such a curve to higher frequencies. The shift of this curve (measured at the halfway point) gives a parameter which is expressed as the "Depression of the Self-Stimulation Reward" or DSSR. The maximum DSSR value obtained for the most powerful neutoleptics and tranquilizing compounds tested so far, seldom exceeds 0.3. This is designated as 100%. In the actual tests, the maximum DSSR value obtained for a given dose of drug and the half-life time [duration half-life (DHL)] of its return to 0% (the control state) was measured.

[2] = system: general motor activity of mice; test: General locomotor activity of mice (Stoelting electronic activity monitor); type: in vivo, Balb/c mice; conditions: for activity in the general motor activity test (in words): i.p., mice
Protocol: The effect of intraperitoneal (i.p.) injections of test compounds on the general motor activity of mice during a 60-min period was determined in a Stoelting electronic activity monitor. Dose-response curves were obtained from which the half-maximally effective values were calculated and the results are shown in Table V.
The compounds were dissolved in 25% (vols.) propylene glycol in water and injected i.p. into Balb/c mice (18-24 g). Dose-response measurements were obtained for 6 animals per dose or time point. Activity was monitored for 60 min using a Stoelting Electronic Activity Monitor (EAM) apparatus to assess the general motor activity of the animals.
The general locomotor activity of mice was measured in the Stolting activity monitor apparatus during 60 min after an intraperitoneal (i.p.) injection of a test compound.

[3] = system: bicuculline-induced epileptic seizures; test: Delay of onset of bicuculline-induced seizures (anticonvulsant activity); type: in vivo, mouse; conditions: for In Vivo Delay of Time of Onset of Bicuculline-induced seizures: graded 0-5; for effect on bicuculline-induced seizures (in words): mice
Protocol: In a second behavioral test, the ability of a substance to prevent or delay the onset of biculline-induced epileptic seizures was measured. […] At 24 hr after i.p. injection of the cholesteryl derivative at a dose of 30 mg/kg (64 pmol/kg), the onset of seizures was delayed by 30% after an acute i.p. injection of bicuculline at 0.3 mg/kg. […] The dexamethasone and butyl esters had no effect.
The compounds were also injected i.p. at 1, 6 and 24 hr before the administration of bicuculline (0.3 mg/kg) s.c. The latency to the onset of generalized tonic-clonic epileptic seizures and the protection against the lethality of bicuculline were measured and evaluated as a percent of the data for vehicle-injected controls. No significant changes were obtained at the 1 hr and 6 hr time points. At the 24 hr time, however, some compounds delayed while others accelerated the onset of seizures.
The effect of the compound to delay the onset of a bicuculline-induced seizures was evaluated.
The ability of a substance to delay the onset of bicuculline-induced epileptic seizures in the mouse was measured (Table X). […] At 24 hr after i.p. injection of the cholesteryl derivative (6) at a dose of 30 mg/kg (64 pmol/kg), the onset of seizures was delayed by 30% (as compared to saline controls) after an acute i.p. injection of bicuculline at 0.3 mg/kg. […] The dexamethasone and butyl esters had no effect on seizures in mice.

[4] = Comparative brain/liver uptake of 14C-labeled compounds (Brain Penetration Index); conditions: for increase of 5-min BPI over GABA: 5 min after s.c. injection, relative to GABA
Protocol: The criterion used herein for measuring the extent to which a compound, from which the radical A is derived, crosses the blood-brain barrier is based on the uptake of this compound by the brain relative to its uptake by the liver. […] Measurements of the quantity of a compound present in brain and liver at 5 minutes after a subcutaneous (s.c.) injection were used to calculate a Brain Penetration Index (BPI), with the equation: [formula]
This is the amount of the compound present per gram of brain tissue as a percent of the amount per gram of liver tissue.
This procedure has the advantage that even for a sparingly soluble lipid ester, which tends to remain largely at the site of the injection and slowly diffuse into the circulation, its level in the liver will reflect the amount available rather than the initial dose injected.
The uptake of a ^14C-labeled compound into brain was compared with the uptake into liver of the same animal.
All determinations were carried out at 5 min after injection. The volumes of the injected doses into mice (body weight, 18-24 g) for the i.v., i.p., and s.c. doses were 0.15, 0.3 and 0.5 ml, respectively. […] Each tissue was homogenized in 8 ml of pyridine in a glass homogenizer.
Each labeled test compound was injected as a solution in 0.5 ml of saline (Compound 7) or in 25% propylene glycol in water (Compounds 1, 5, 6) subcutaneously (s.c.) into young adult Balb/c mice (18-24 g body weight). After 5 min (or longer) animals were sacrificed and the brain and liver removed, weighed and homogenized respectively in 8 ml and 10 ml of brain protein solvent (1 % (w/v) sodium dodecyl sulfate in 6 M urea and 19 mM EDTA, pH 7.4, 0.03 M phosphate). Aliquots (0.5 ml) of the homogenates were mixed with 10 ml of Aquasol 2 (New England Nuclear) and counted in a Beckman liquid scintillation counter. The total uptake of each compound per g brain and liver tissue was calculated. The proportion of uptake into brain as compared to liver (100%) of the same animal was designated as the Brain Penetration Index (BPI), expressed as a percentage typically at 5 min after injection.
Each of the ^14C-labeled Compounds 26, 28 and 30 were in 125 µl of the propylene glycol diluted with water up to 0.5 ml, and then injected subcutaneously into test Balb/c mice (20 ± 2 g weight). After 5 min the animals were sacrificed and the brain and liver were removed, weighed and homogenized in 8 ml and 10 ml of brain protein solvent, respectively. Next 0.5 ml aliquots were mixed with 10 ml of Aquasol 2 (New England Nuclear Corp., Boston, MA) and counted in a Beckman liquid scintillation counter. The data for the label in each tissue were used to calculate the total quantity of the compound present in brain and liver per gram of tissue. The ratio of the amount in brain as a percent of that present in liver at 5 min was taken as the Brain Penetration Index (BPI). Measurements at longer uptake times were also obtained to evaluate the accumulation of the compounds in the brain.

[5] = in vivo; conditions: mouse, brain, sc
[6] = n-Octanol/water partition coefficient; type: physicochemical; conditions: n-octanol/water, 5 ml n-octanol / 5 ml water, stirring 18 hours; read-out: KOW: Octanol/Water Partition Coefficient (converted)
Protocol: A Partition Coefficient was defined by the equation: [formula] representing the amount of the ester taken up per ml of n-octanol relative to the amount of the same compound taken up per ml of water.
The n-octanol/water partition coefficients were obtained from measurements of the distribution of 1, 3, 5 and 6 pmol quantities of each ^14C-labeled compound into a mixture of 5 ml of n-octanol and 5 ml water. At each concentration, the amount of labeled compound in the aqueous and n-octanol phases was calculated from the amount of radioactive material present after stirring for 18 hours.

[7] = system: CAI pyramidal cells; type: cell-based, Sprague-Dawley rats
Protocol: Transverse slices of hippocampus (350-375 µm thick) were prepared from Sprague-Dawley rats (200-300 g) and transferred onto a nylon net fixed over a 1.5 ml superfusion chamber. The slices were maintained at 32-33°C in a humidified atmosphere of 95%/5% 02/C02. The standard medium consisted of (in mM): NaCl, 125; KCI, 3.5; CaC12,2; MgS04, 1.5; NaH2PO4, 1; NaHC03, 24; and glucose, 10. Low chloride medium was prepared by substituting sodium isethionate for sodium chloride.
Extracellular potentials were recorded with NaCI-fitted micropipettes, and stimulus pulses were applied through bipolar platinum wire electrodes. The various drugs were dissolved in fresh medium (without glucose and phosphate) and applied to the surface of the tissue by pressure ejection from a micropipette, Sakai, Swartz and Woody, (1979).
The inhibitory effectiveness of various compounds was investigated by measuring their ability to suppress the extracellular population spike recorded from the hippocampal CAI pyramidal layer and elicited by stimulation of stratum radiatum axons. The amplitude of this monosynaptic population spike is essentially proportional to the number of pyramidal cells discharging in response to a stimulus volley, Andersen, Bliss and Skrede, (1971).
The various compounds were applied as droplets to the pyramidal layer approximately 75 µm from the recording electrode. The volume of a single drug application was about 300 picoliters. […] The volume ejected from each pipette was calibrated prior to use by measuring the diameter of the ejected droplet and adjusting the duration of the pressure pulse (usually 100-500 msec) until a standard diameter was reached. A constant droplet volume was used throughout the experiments. Where dose-response information was required, several pipettes with different drug concentrations were used.

[8] = Table IV, 380 μmol/kg s.c., 5 min, mice, mean ± S.E.M. (n = 3)
[9] = Table IX summary, 5-min Brain Penetration Index
[10] = 70 μmol/kg s.c., 5 min, mice, mean ± S.E.M. (n = 3)
[11] = 84 mg/kg, 24 hr pretreatment, bicuculline 0.3 mg/kg, mean ± SEM, n ≥ 6

1-Linolenoyl 2-gamma-aminobutyryl 3-gamma-vinyl-gamma-aminobutyryl glycerol dihydrochloride [Compound 40]
Max. DSSR ([1]; dose 16 μm/kg, Depression of the Self-Stimulation Reward): 90
DHL ([1]; dose 16 μm/kg, duration half-life of return to 0%): 30 min

CCCCOC(=O)CCCN [Compound 1, Butyl Ester of GABA]
activity in the general motor activity test (in words) [2]: not active
In Vivo Delay of Time of Onset of Bicuculline-induced seizures [3]: 1
effect on bicuculline-induced seizures (in words) [3]: no effect
(BRAIN) ([4]; 380 μmol/kg s.c., 60 min, mice): 14.4 nmol/g
(LIVER) ([4]; 380 μmol/kg s.c., 60 min, mice): 13.7 nmol/g
BPI ([4]; 380 μmol/kg s.c., 60 min, mice): 105%
increase of 5-min BPI over GABA [4]: 74 fold
(BRAIN) [4, 8]: 19.2 ± 0.3 nmol/g
(LIVER) [4, 8]: 26.0 ± 1.6 nmol/g
BPI [4, 8]: 74 ± 3.4%
BPI [4, 9]: 74
remaining at 1 h [5]: 4%

C[C@@H]1C[C@H]2[C@@H]3CCC4=CC(=O)C=C[C@]4(C)[C@@]3(F)[C@@H](O)C[C@]2(C)[C@@]1(O)C(=O)COC(=O)CCCN [Compound 7, Dexamethasone-21-gamma-aminobutyrate]
In Vivo Inhibition of General Motor Activity ([2]; graded 0-5): 0
activity in the general motor activity test (in words) [2]: not active
logP at 18 h [6]: -0.0458
In Vivo Delay of Time of Onset of Bicuculline-induced seizures [3]: 0
effect on bicuculline-induced seizures (in words) [3]: no effect
(BRAIN) [4, 10]: 8.7 ± 1 nmol/g
(LIVER) [4, 10]: 10.8 ± 2 nmol/g
BPI [4, 10]: 81 ± 20%
(BRAIN) ([4]; 70 μmol/kg s.c., 15 min, mice): 21.5 nmol/g
(LIVER) ([4]; 70 μmol/kg s.c., 15 min, mice): 29.0 nmol/g
BPI ([4]; 70 μmol/kg s.c., 15 min, mice): 74%
increase of 5-min BPI over GABA [4]: 81 fold
BPI [4, 9]: 81

C=CC(N)CCC(=O)O[C@H]1CC[C@@]2(C)C(=CC[C@H]3[C@@H]4CC[C@H]([C@H](C)CCCC(C)C)[C@@]4(C)CC[C@@H]32)C1 (stereo partly shown) [Compound 33, Cholesteryl gamma-vinyl gamma-aminobutyrate hydrochloride]
Max. DSSR ([1]; dose 40 μm/kg): 83
DHL ([1]; dose 40 μm/kg, duration half-life of return to 0%): 1440 to 2880 min

CC(C)CCC[C@@H](C)[C@H]1CC[C@H]2[C@@H]3CC=C4C[C@@H](O)CC[C@]4(C)[C@H]3CC[C@]12C [cholesterol, reference compound]
Onset of seizures: % Saline Control [3, 11]: 118 ± 6 % Saline Control
Survival Time: % Saline Control [3, 11]: 110 ± 7 % Saline Control

C=CC(N)CCC(=O)O (stereo not shown) [gamma-vinyl GABA, reference compound]
Max. DSSR ([1]; dose 31 μm/kg): 0
DHL ([1]; dose 31 μm/kg, duration half-life): 0

NCc1cc(=O)[nH]o1 [muscimol]
duration of effect relative to a comparably effective dose of GABA [7]: roughly 100 times
effect with picrotoxin (10 µM) in the medium or low chloride medium [7]: little effect
doses required relative to GABA for effects of comparable magnitude ([7]; concentration in the drug pipette): nearly a thousand-fold lower
inhibition of the evoked population spike ([7]; droplets applied to the CAI pyramidal layer): dose-dependent inhibition
